Measured values published in ChEMBL document CHEMBL5678816, “A Next-Generation TRK Kinase Inhibitor Overcomes Acquired Resistance to Prior TRK Kinase Inhibition in Patients with TRK Fusion-Positive Solid Tumors” (Cancer Discov, 2017).
Calls of active or inactive are those of the source. No cut-off for these calls is given here.

Assays:
[1] = Cmin in adult patient with recurrent LMNA-NTRK1 rearranged colorectal cancer at 100 mg administered twice a day as powder-in-capsule or liquid formulation for 15 day and measured 10 hrs post dose by LC-MS/MS analysis; format: ADME; details: human, in vivo, po, read-out: Cmin
[2] = tested on: SHP77; test: Inhibition of cell proliferation in human SHP77 cells upto 10 umol/L incubated for 72 hrs by DAPI staining based analysis; format: functional; details: dose <= 10.0 µmol/L
[3] = tested on: KATO III stomach cancer cell line; test: Inhibition of cell proliferation in human KATO III stomach cancer cell line upto 10 umol/L incubated for 72 hrs by DAPI staining based analysis; format: functional; details: dose <= 10.0 µmol/L
[4] = molecular target: Dual specificity protein kinase CLK2 (Homo sapiens) (UniProt P49760); test: Inhibition of CLK2 (unknown origin) at 1 uM in presence of ATP relative to control; values are per cent of control
[5] = tested on: NIH3T3; test: In vivo inhibition of […] in nu/nu NCr mouse implanted with mouse NIH3T3 cells harboring extracellular domain deleted […] assessed as reduction in […] phosphorylation at 10 to 100 mg/kg, po administered twice daily for 3 days and measured after 2 hrs post last dose by ELISA; format: functional, organism-based; details: dose 10-100 mg/kg, time 3.0 day
[6] = molecular target: Receptor-interacting serine/threonine-protein kinase 2 (Homo sapiens) (UniProt O43353); test: Inhibition of RIPK2 (unknown origin) at 1 uM in presence of ATP relative to control; values are per cent of control
[7] = Cmax in pediatric patient with recurrent ETV6-NTRK3-rearranged infantile fibrosarcoma at 20 mg administered twice a day as liquid formulation for 1 day by LC-MS/MS analysis; format: ADME; details: human, in vivo
[8] = molecular target: Protein kinase C delta type (Homo sapiens) (UniProt Q05655); test: Inhibition of PKCdelta (unknown origin) at 1 uM in presence of ATP relative to control; values are per cent of control
[9] = tested on: CGTH-W-1; test: Inhibition of cell proliferation in human CGTH-W-1 cells upto 10 umol/L incubated for 72 hrs by DAPI staining based analysis; format: functional; details: dose <= 10.0 µmol/L
[10] = tested on: HMCB cell line; test: Inhibition of cell proliferation in human HMCB cells upto 10 umol/L incubated for 72 hrs by DAPI staining based analysis; format: functional; details: dose <= 10.0 µmol/L
[11] = molecular target: SRSF protein kinase 1 (Homo sapiens) (UniProt Q96SB4); test: Inhibition of SRPK1 (unknown origin) at 1 uM in presence of ATP relative to control; values are per cent of control
[12] = molecular target: Glycogen synthase kinase-3 beta (Homo sapiens) (UniProt P49841); test: Inhibition of GSK3beta (unknown origin) at 1 uM in presence of ATP relative to control; values are per cent of control
[13] = molecular target: Proto-oncogene tyrosine-protein kinase Src (Homo sapiens) (UniProt P12931); test: Inhibition of SrC (unknown origin) at 1 uM in presence of ATP relative to control; values are per cent of control
[14] = Inhibition of human extracellular domain deleted TRKA V573M mutant expressed in mouse NIH3T3 cells assessed as reduction in TRKA phosphorylation incubated for 1 hrs by ELISA; format: cell-based; details: NIH3T3, 1 h
[15] = tested on: SNU-16; test: Inhibition of cell proliferation in human SNU-16 cells upto 10 umol/L incubated for 72 hrs by DAPI staining based analysis; format: functional; details: dose <= 10.0 µmol/L
[16] = molecular target: CDK6/cyclin D3 (Homo sapiens) (UniProt P30281+Q00534); test: Inhibition of CDK6/cyclinD3 (unknown origin) at 1 uM in presence of ATP relative to control; values are per cent of control
[17] = molecular target: CDK3/Cyclin E (Homo sapiens) (UniProt P24864+Q00526); test: Inhibition of CDK3/cyclinE (unknown origin) at 1 uM in presence of ATP relative to control; values are per cent of control
[18] = molecular target: MAP kinase-interacting serine/threonine-protein kinase 2 (Homo sapiens) (UniProt Q9HBH9); test: Inhibition of MKNK2 (unknown origin) at 1 uM in presence of ATP relative to control; values are per cent of control
[19] = tested on: LC2; test: Inhibition of cell proliferation in human LC2 cells upto 10 umol/L incubated for 72 hrs by DAPI staining based analysis; format: functional; details: dose <= 10.0 µmol/L
[20] = molecular target: Calcium/calmodulin-dependent protein kinase type II subunit gamma (Homo sapiens) (UniProt Q13555); test: Inhibition of CAMK2g (unknown origin) at 1 uM in presence of ATP relative to control; values are per cent of control
[21] = molecular target: Tyrosine-protein kinase Lyn (Homo sapiens) (UniProt P07948); test: Inhibition of Lyn (unknown origin) at 1 uM in presence of ATP relative to control; values are per cent of control
[22] = molecular target: Dual specificity mitogen-activated protein kinase kinase 1 (Homo sapiens) (UniProt Q02750); test: Inhibition of MEK1 (unknown origin) at 1 uM in presence of ATP relative to control; values are per cent of control
[23] = tested on: HEL 92.1.7; test: Inhibition of cell proliferation in human HEL 92.1.7 cells upto 10 umol/L incubated for 72 hrs by DAPI staining based analysis; format: functional; details: dose <= 10.0 µmol/L
[24] = molecular target: Macrophage colony-stimulating factor 1 receptor (Homo sapiens) (UniProt P07333); test: Inhibition of Fms (unknown origin) at 1 uM in presence of ATP relative to control; values are per cent of control
[25] = Toxicity in nu/nu NCr mouse implanted with mouse NIH3T3 cells harboring extracellular domain deleted TRKA G595R mutant assessed as body weight loss at 30 to 300 mg/kg, po administered twice daily for 12 days relative to control; format: organism-based; details: in vivo, 288 h, dose 30-300 mg/kg, time 12 day
[26] = molecular target: Serine/threonine-protein kinase pim-1 (Homo sapiens) (UniProt P11309); test: Inhibition of Pim-1 (unknown origin) at 1 uM in presence of ATP relative to control; values are per cent of control
[27] = Cmax in adult patient with recurrent LMNA-NTRK1 rearranged colorectal cancer at 100 mg administered twice a day as powder-in-capsule or liquid formulation for 22 days by LC-MS/MS analysis; format: ADME; details: human, in vivo, oral, time 22 day
[28] = molecular target: Serine/threonine-protein kinase Chk1 (Homo sapiens) (UniProt O14757); test: Inhibition of CHK1 (unknown origin) at 1 uM in presence of ATP relative to control; values are per cent of control

Receptor-interacting serine/threonine-protein kinase 2 (Homo sapiens), sequence (O43353 whole entry): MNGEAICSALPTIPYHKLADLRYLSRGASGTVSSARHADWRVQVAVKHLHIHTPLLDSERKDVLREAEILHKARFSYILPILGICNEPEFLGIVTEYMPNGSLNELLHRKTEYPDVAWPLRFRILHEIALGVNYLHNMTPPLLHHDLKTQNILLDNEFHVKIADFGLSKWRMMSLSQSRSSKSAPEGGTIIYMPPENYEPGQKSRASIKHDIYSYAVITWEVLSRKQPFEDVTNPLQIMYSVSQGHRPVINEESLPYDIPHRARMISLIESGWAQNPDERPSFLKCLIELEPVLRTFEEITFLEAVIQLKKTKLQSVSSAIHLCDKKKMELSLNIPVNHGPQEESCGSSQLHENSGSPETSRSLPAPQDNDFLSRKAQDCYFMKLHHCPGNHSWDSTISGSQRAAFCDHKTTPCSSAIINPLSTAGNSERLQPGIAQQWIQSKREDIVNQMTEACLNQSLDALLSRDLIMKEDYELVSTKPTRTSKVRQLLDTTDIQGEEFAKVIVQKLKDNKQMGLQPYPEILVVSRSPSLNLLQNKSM
Dual specificity protein kinase CLK2 (Homo sapiens), sequence (P49760 whole entry, looked up, the tested form may be a part): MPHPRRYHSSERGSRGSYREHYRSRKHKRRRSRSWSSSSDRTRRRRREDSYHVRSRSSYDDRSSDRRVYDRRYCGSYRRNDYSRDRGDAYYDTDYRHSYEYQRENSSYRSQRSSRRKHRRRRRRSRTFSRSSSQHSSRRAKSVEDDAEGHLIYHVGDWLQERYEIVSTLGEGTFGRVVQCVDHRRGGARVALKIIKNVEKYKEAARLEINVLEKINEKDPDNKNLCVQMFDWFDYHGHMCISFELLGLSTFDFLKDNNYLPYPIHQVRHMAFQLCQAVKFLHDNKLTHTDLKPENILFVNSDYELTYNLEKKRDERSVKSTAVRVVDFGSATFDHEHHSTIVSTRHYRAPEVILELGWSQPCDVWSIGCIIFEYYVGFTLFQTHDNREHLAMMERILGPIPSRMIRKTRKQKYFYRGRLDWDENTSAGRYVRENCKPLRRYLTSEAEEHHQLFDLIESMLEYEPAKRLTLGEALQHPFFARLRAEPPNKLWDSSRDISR
Dual specificity mitogen-activated protein kinase kinase 1 (Homo sapiens), sequence (Q02750 whole entry): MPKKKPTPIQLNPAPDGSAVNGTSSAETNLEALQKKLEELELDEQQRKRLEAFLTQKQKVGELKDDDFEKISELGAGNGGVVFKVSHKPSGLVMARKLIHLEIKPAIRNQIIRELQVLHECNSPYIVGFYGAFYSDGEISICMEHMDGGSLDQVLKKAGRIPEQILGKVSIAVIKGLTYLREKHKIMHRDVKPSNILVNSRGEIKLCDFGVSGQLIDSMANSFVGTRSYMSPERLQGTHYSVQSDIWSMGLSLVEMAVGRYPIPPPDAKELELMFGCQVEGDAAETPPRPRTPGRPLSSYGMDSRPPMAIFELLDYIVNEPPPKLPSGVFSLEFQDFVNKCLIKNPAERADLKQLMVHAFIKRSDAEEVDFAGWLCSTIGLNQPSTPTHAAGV
MAP kinase-interacting serine/threonine-protein kinase 2 (Homo sapiens), sequence (Q9HBH9 whole entry, looked up): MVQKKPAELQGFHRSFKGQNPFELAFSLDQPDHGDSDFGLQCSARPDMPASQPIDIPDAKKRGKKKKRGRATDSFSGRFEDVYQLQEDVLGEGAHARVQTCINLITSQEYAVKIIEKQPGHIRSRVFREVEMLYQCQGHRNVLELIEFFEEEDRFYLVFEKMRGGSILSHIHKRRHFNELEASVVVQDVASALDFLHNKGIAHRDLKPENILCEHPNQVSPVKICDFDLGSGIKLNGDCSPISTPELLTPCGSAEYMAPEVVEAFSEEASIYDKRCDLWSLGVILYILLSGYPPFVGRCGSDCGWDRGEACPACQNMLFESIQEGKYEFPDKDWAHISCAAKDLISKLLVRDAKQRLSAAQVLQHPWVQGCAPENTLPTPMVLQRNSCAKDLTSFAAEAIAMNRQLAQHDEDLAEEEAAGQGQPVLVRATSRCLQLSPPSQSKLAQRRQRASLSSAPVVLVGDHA
Tyrosine-protein kinase Lyn (Homo sapiens), sequence (P07948 2-512 limits assumed): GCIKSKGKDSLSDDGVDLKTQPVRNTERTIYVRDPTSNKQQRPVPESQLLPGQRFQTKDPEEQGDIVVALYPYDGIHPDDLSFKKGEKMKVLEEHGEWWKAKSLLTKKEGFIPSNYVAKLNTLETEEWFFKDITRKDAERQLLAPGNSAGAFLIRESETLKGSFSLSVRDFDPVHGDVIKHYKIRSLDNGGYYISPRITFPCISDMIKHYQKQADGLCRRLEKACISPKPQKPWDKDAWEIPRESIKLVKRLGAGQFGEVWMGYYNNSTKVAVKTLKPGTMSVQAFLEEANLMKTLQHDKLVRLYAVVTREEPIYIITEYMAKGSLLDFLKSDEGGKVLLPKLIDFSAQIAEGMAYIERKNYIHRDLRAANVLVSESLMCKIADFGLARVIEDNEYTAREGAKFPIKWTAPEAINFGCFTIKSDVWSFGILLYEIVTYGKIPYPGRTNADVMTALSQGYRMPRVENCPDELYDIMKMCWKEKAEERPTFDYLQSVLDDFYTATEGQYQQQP
Calcium/calmodulin-dependent protein kinase type II subunit gamma (Homo sapiens), sequence (Q13555 whole entry): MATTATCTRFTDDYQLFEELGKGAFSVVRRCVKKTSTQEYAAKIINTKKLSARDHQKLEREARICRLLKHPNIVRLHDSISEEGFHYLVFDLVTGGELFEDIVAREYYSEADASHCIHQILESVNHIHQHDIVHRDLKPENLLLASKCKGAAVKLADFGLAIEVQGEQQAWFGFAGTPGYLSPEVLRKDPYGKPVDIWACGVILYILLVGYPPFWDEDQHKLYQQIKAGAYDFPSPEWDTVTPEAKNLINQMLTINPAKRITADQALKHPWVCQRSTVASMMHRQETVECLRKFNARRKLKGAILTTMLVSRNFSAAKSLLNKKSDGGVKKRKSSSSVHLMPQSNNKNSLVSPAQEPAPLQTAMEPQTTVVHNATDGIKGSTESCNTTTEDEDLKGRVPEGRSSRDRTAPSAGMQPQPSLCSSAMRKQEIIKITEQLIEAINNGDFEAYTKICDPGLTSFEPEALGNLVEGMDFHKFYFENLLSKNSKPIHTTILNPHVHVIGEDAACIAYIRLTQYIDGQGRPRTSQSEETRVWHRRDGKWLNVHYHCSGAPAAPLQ
Glycogen synthase kinase-3 beta (Homo sapiens), sequence (P49841 whole entry, looked up): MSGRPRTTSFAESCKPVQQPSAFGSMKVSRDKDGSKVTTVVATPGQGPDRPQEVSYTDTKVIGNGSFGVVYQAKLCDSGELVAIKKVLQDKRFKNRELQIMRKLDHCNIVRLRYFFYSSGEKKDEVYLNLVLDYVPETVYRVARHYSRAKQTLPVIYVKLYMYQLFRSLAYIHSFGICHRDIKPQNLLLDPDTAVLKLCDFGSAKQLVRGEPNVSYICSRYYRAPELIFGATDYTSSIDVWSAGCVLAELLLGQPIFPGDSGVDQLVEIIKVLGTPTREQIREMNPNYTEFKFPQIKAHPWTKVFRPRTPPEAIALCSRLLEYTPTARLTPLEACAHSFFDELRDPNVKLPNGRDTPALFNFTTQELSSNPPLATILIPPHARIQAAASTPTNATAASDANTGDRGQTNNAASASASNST
SRSF protein kinase 1 (Homo sapiens), sequence (Q96SB4 whole entry): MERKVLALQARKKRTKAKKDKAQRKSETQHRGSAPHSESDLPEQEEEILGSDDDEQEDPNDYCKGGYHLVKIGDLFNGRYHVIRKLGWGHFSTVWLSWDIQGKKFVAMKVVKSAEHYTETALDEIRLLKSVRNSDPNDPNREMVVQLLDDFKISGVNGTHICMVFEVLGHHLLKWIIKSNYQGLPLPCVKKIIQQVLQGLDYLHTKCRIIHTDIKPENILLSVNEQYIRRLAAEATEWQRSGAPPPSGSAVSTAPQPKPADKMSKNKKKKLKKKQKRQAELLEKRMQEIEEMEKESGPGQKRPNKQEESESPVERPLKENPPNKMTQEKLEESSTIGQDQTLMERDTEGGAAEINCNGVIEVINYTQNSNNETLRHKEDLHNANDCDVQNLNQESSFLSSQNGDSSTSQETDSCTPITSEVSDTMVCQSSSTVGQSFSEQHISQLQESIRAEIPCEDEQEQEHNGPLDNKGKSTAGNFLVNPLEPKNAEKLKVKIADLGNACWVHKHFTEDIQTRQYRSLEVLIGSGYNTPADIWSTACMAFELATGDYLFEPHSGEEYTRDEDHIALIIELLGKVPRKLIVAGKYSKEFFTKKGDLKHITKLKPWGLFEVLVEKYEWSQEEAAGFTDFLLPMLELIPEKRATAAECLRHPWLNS
Proto-oncogene tyrosine-protein kinase Src (Homo sapiens), sequence (P12931 2-536 limits assumed): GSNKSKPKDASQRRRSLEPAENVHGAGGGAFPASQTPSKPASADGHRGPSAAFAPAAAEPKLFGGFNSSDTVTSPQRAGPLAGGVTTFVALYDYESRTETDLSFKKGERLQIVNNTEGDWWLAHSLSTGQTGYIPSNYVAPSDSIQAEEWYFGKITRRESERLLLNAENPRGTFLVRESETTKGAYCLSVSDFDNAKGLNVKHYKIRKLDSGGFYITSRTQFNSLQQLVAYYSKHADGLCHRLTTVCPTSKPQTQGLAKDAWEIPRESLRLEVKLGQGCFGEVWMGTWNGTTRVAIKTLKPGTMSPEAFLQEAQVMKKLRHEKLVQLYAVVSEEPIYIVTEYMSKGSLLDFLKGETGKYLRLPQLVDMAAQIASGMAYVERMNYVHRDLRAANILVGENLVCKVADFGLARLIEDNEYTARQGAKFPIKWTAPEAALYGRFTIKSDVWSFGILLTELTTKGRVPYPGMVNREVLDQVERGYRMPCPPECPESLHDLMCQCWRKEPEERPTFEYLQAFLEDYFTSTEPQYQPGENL
Serine/threonine-protein kinase pim-1 (Homo sapiens), sequence (P11309 whole entry, looked up): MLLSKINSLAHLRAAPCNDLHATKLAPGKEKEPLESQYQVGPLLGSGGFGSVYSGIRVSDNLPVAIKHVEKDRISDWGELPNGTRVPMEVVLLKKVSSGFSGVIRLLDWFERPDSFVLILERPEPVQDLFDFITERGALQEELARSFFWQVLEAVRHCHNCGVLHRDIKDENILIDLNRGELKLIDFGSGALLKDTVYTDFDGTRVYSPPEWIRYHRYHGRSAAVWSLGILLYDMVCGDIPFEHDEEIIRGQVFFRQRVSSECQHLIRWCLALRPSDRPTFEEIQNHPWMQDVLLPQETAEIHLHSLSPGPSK

With C[C@@H]1CCc2ncc(F)cc2[C@H]2CCCN2c2ccn3ncc(c3n2)C(=O)N1 [SELITRECTINIB] the concentration at 370 h [1] was 7.78 ng/mL, the inhibition [2] was “inactive” and the inhibition [3] was “inactive”. The residual activity [4] was 96.5%, the inhibition [5] was “Active” and the residual activity [6] was 100%. The Cmax [7] was 143 ng/mL, the residual activity [8] was 108% and the inhibition [9] was “inactive”. For the same compound, the inhibition [10] was “inactive”, the residual activity [11] was 104% and the residual activity [12] was 124%. The residual activity [13] was 102%, the IC50 [14] was 29 nM and the inhibition [15] was “inactive”. For the same compound, the residual activity [16] was 110%, the residual activity [17] was 104% and the residual activity [18] was 100%. The inhibition [19] was “inactive”, the residual activity [20] was 95% and the residual activity [21] was 98%. For the same compound, the residual activity [22] was 122%, the inhibition [23] was “inactive” and the residual activity [24] was 87.5%. For the same compound, the Activity [25] was under 5%, the residual activity [26] was 122% and the Cmax [27] was 800 ng/mL. The residual activity [28] was 109%.
